Measurements as given in patent EP0052910A1, “Derivative of N-acetilcysteine having therapeutical activity, process for its preparation and related pharmaceutical compositions” (Real S.a.s. di Alberto Reiner & C., priority 1980, dated 1982).

How the values were obtained:
[1] = system: rats of male sex, of the Sprague-Dawley strain; assay: Anti-inflammatory activity in the kaolin test; assay type: in vivo; conditions: 10% suspension of kaolin injected, diameter of the tibio-tarsal articulation
Experimental: a) Anti-inflammatory activity in the kaolin test. For each compound 16 rats of male sex, of the Sprague-Dawley strain and of 200-250 g of body weight, were used. The rats were divided into four groups each comprising four rats. All.-the animals were injected with a 10% suspension of kaolin. The first group was used as the control, whereas the other three groups were administered with doses respectively of 50,75 and 100 mg/kg. The measurements of the diamzrers of the articulation were effected one hour after the kaolin injection and then every 24 hours.
The inoculation of kaolin caused an increase of the tibio-tarsal articulation which has been partially limited by the treatment with the test compound.

[2] = system: male rats, of the Sprague-Dawley strain; assay: Anti-inflammatory activity in the egg white test; assay type: in vivo; conditions: orally, 0.1 ml of egg white in the rear paw, measured 3 and 4 hours later
Experimental: For each compound 16 male rats, of the Sprague-Dawley strain and weighing 300 g, were used. The animals were divided in four groups each comprising four rats. The first group served as a control, whereas the other three gropus were orally administered, with a 30 minute interval, with two doses of 50,75 and 100 mg/kg of the test compound. The last administration was immediately followed by the inoculation of 0.1 ml of egg white in the rear paw of all the animals, including the controls. The measurements of the diameters of the articulations were effected 3 and 4 hours later.

In the case of “p-isobutylphenylpropionoylthio-N-acetylcysteine”, the Anti-inflammatory activity % ([1]; dose 75 mg/kg) is reported as 12%, the Anti-inflammatory activity % ([1]; dose 100 mg/kg) is reported as 26% and the Anti-inflammatory activity % ([2]; two doses of 75 mg/kg with a 30 minute interval) is reported as 12%. It also gave an Anti-inflammatory activity % ([2]; two doses of 100 mg/kg with a 30 minute interval) of 20%.
